Test results reported in the NIST ThermoML archive (doi:10.1016/j.jct.2018.12.044).
± gives the expanded uncertainty stated by the source.

Settings: Crystal; DTA

In the case of `CC[C@H]1OC(=O)[C@H](C)[C@@H](O[C@H]2C[C@@](C)(OC)[C@@H](O)[C@H](C)O2)[C@H](C)[C@@H](O[C@@H]2O[C@H](C)C[C@H](N(C)C)[C@H]2O)[C@](C)(O)C[C@@H](C)[C@@H]2N[C@@H](COCCOC)O[C@H]([C@H]2C)[C@]1(C)O` [Dirithromycin], the Normal melting temperature is reported as 194.36 ± 6 °C.
